One experiment concerns TSST-1. Type of experiment: cell-based, S. aureus MN8.
Another experiment concerns S. aureus MN8. Type of experiment: cell-based, Staphylococcus aureus. The conditions noted are these: 24 hours at 35° C.

From US7056891B2 (priority 2000, dated 2006) come the findings set out here.

Read-outs that look alike come from different tables or passages of the source.

As to PPG-5 Laureth-5, the “TSST-1” value in the experiment on TSST-1 is on record as 609.2 ng/mL. In the experiment with S. aureus MN8, the “Final [S. aureus]” value is listed as 3.82 x10^9 CFU/ml.

Consider Laureth-4, for which the “TSST-1” value with TSST-1 (24 hours at 35° C.) is recorded as 531.8 ng/mL. In addition, the “Final [S. aureus]” value in the experiment on S. aureus MN8 was 4.57 x10^9 CFU/ml.

On to Steareth-2, for which the “TSST-1” value with TSST-1 (24 hours at 35° C.) amounted to 680.7 ng/mL. In the experiment with S. aureus MN8, the “Final [S. aureus]” value is 5.76 x10^9 CFU/ml.
